Assay results from patent US5847108A, “Clathrate of isoflavone derivatives and edible composition comprising the same” (Fujicco Co., Ltd., priority 1996, dated 1998).

Legend:
[1] = tested on: postmenopausal osteoporosis model (femur); assay: Bone density of femur in postmenopausal osteoporosis model (ovariectomized rats, calcium deficient diet); format: in vivo, Sprague-Dawley rats; conditions: ovariectomized rat femur, oral, 28 days; Means ± S.D.; a: vs nonclathrated, b: vs control (1%)
Description: (§1) To obtain postmenopausal osteoporosis model, eighty-day-old Sprague-Dawley rats, on day 10 after ovariectomy, was grown for 28 days feeding with calcium deficient diet (Ca: 0.004%, P: 0.3%), with one group consisting of 5 to 6 rats. During the time the rats were growing, an isoflavone derivative, or a β-cyclodextrin clathrate thereof (see Table 3), was administered orally in the form of a solution or a suspension in 1% aqueous hydroxypropylcellulose. On the day before the final administration, urine was collected for 24 hours. Blood was collected from postcava at 4 hours after the final administration, and a femur was removed. The collected blood was separated to obtain serum according to a standard method. In order to determine the amounts of isoflavone derivatives in the obtained samples of urine and serum, the samples were subjected to the reactions for 2 hours at 37° C. through adding thereto 50 Units/ml of sulfatase (EC3.1.6.1; SIGMA CHEMICAL Co. LTD.) in 1 ml of acetate buffer (0.1M, pH 4.5). Then 1 ml of acetate buffer (0.1M, pH 4.5) containing β-glucuronidase (200 Units/ml, EC 3.2.1.31, WAKO JYUNYAKU KOGYO KABUSIKI KAISYA) was added to the mixture and incubated for 2 hours at 37° C. After treating it with Sep-Pak (Waters), the incubated solution was analyzed using HPLC as described in the above clathrate formation test. Concentration of each isoflavone derivatives in the sample was determined based on the values for daidzein, genistein, or glycitein as a standard. Bone density of femur was calculated based on wet weight and volume measured by pycnometer.

[2] = Serum (blood) level of isoflavone derivatives after oral administration to ovariectomized rats; design: species or system Sprague-Dawley rats; conditions: in vivo
Description: as §1

[3] = in words, dietary intake; cited from earlier work
[4] = 24 h urinary excretion of isoflavone derivatives after oral administration to ovariectomized rats; design: species or system Sprague-Dawley rats; conditions: in vivo, rat, 24 h urine on day before final administration, Means ± S.D., a: significantly different from nonclathrated (1%), read-out: Urinary Excretion Rate
Description: as §1, with “Then 1 ml of acetate buffer (0.1M, pH 4.5) containing β-glucuronidase (200 Units/ml, EC 3.2.1.31, WAKO JYUNYAKU KOGYO KABUSIKI KAISYA) was added to the mixture and incubated for 2 hours at 37° C.” left out

SMILES | Bone Density [1] [g/mL] | concentration at 4 h ([2]; rat) [ng/mL] | concentration at 4 h ([2]; heading: Blood Level, rat serum, oral, 4 hours after the final administration, Means ± S.D., a: significantly different from nonclathrated (1%)) [ng/mL] | urinary excretion in Japanese female relative to female in Boston or Helsinki [3] | dose excreted at 24 h [4] [%]
O=C(O)CCC(=O)OC[C@H]1O[C@@H](Oc2cc(O)c3c(=O)c(-c4ccc(O)cc4)coc3c2)[C@H](O)[C@@H](O)[C@@H]1O [6"-O-succinylgenistin] | 1.486 ± 0.028 | 820 ± 50 | – | – | –
O=c1c(-c2ccc(O)cc2)coc2cc(O)ccc12 [daidzein] | 1.489 ± 0.013 | 650 ± 40 | – | – | –
O=c1c(-c2ccc(O)cc2)coc2cc(O)cc(O)c12 [genistein] | 1.492 ± 0.012 | 680 ± 30 | – | – | –
O=C(O)CC(=O)OC[C@H]1O[C@@H](Oc2ccc3c(=O)c(-c4ccc(O)cc4)coc3c2)[C@H](O)[C@@H](O)[C@@H]1O [6"-O-malonyldaidzin] | 1.488 ± 0.012 | 850 ± 50 | – | – | –
COc1cc2c(=O)c(-c3ccc(O)cc3)coc2cc1O[C@@H]1O[C@H](COC(C)=O)[C@@H](O)[C@H](O)[C@H]1O [6"-O-acetylglycitin] | 1.489 ± 0.012 | 720 ± 60 | – | – | –
CC(=O)OC[C@H]1O[C@@H](Oc2cc(O)c3c(=O)c(-c4ccc(O)cc4)coc3c2)[C@H](O)[C@@H](O)[C@@H]1O [6"-O-acetylgenistin] | 1.494 ± 0.028 | 780 ± 70 | – | – | –
COc1cc2c(=O)c(-c3ccc(O)cc3)coc2cc1O[C@@H]1O[C@H](COC(=O)CCC(=O)O)[C@@H](O)[C@H](O)[C@H]1O [6"-O-succinylglycitin] | 1.477 ± 0.032 | 790 ± 30 | – | – | –
COc1cc2c(=O)c(-c3ccc(O)cc3)coc2cc1O[C@@H]1O[C@H](COC(=O)CC(=O)O)[C@@H](O)[C@H](O)[C@H]1O [6"-O-malonylglycitin] | 1.489 ± 0.012 | 780 ± 50 | – | – | –
CC(=O)OC[C@H]1O[C@@H](Oc2ccc3c(=O)c(-c4ccc(O)cc4)coc3c2)[C@H](O)[C@@H](O)[C@@H]1O [6"-O-acetyldaidzin] | 1.492 ± 0.014 | 740 ± 50 | – | – | –
O=c1c(-c2ccc(O)cc2)coc2cc(O[C@@H]3O[C@H](CO)[C@@H](O)[C@H](O)[C@H]3O)cc(O)c12 [genistin] | 1.502 ± 0.007 | 780 ± 40 | – | – | –
O=c1c(-c2ccc(O)cc2)coc2cc(O[C@@H]3O[C@H](CO)[C@@H](O)[C@H](O)[C@H]3O)ccc12 [daidzin] | 1.496 ± 0.015 | – | 840 ± 30 | ten times greater | 9.3 ± 0.7
O=C(O)CC(=O)OC[C@H]1O[C@@H](Oc2cc(O)c3c(=O)c(-c4ccc(O)cc4)coc3c2)[C@H](O)[C@@H](O)[C@@H]1O [6"-O-malonylgenistin] | 1.494 ± 0.013 | 840 ± 40 | – | – | –
O=C(O)CCC(=O)OC[C@H]1O[C@@H](Oc2ccc3c(=O)c(-c4ccc(O)cc4)coc3c2)[C@H](O)[C@@H](O)[C@@H]1O [6"-O-succinyldaidzin] | 1.490 ± 0.030 | 860 ± 30 | – | – | –
COc1cc2c(=O)c(-c3ccc(O)cc3)coc2cc1O [glycitein] | 1.493 ± 0.013 | 630 ± 50 | – | – | –
COc1cc2c(=O)c(-c3ccc(O)cc3)coc2cc1O[C@@H]1O[C@H](CO)[C@@H](O)[C@H](O)[C@H]1O [glycitin] | 1.494 ± 0.015 | 750 ± 60 | – | – | –
